Measurements reported in patent US6677335B1, “Pharmaceutically active compounds” (Pfizer Inc, priority 1999, dated 2004).

Columns and labels:
cGMP PDE5 = biological target: T1, cGMP PDE5 (Homo sapiens, UniProt O76074); assay: In vitro PDE inhibitory activity against cGMP PDE5 (IC50); type: biochemical; conditions: cGMP PDE5 from human corpus cavernosum tissue
T1 construct: The IC50 measurements for cGMP PDE5 were based upon data generated on human corpus cavernosum tissue; from tissue; host or cells: human corpus cavernosum
Source text: (§1) The IC50 measurements for cGMP PDE5 were based upon data generated on human corpus cavernosum tissue and the IC50 measurements for rod cGMP PDE6 were based upon data generated on bovine retina tissue and wherein the selectivity ratio for cGMP PDE5 to cGMP PDE6 quoted is based upon IC50 PDE5/IC50 PDE6.

rod cGMP PDE6 = biological target: T2, rod cGMP PDE6 (Bos taurus, UniProt P11541+P23439); assay: In vitro PDE inhibitory activity against rod cGMP PDE6 (IC50), used for the PDE5 versus PDE6 selectivity; type: biochemical; conditions: ratio of IC50 for cGMP PDE5 (human corpus cavernosum) and rod cGMP PDE6 (bovine retina)
T2 construct: the IC50 measurements for rod cGMP PDE6 were based upon data generated on bovine retina tissue; from tissue; host or cells: bovine retina
T2 sequence (P11541 2-856 limits assumed): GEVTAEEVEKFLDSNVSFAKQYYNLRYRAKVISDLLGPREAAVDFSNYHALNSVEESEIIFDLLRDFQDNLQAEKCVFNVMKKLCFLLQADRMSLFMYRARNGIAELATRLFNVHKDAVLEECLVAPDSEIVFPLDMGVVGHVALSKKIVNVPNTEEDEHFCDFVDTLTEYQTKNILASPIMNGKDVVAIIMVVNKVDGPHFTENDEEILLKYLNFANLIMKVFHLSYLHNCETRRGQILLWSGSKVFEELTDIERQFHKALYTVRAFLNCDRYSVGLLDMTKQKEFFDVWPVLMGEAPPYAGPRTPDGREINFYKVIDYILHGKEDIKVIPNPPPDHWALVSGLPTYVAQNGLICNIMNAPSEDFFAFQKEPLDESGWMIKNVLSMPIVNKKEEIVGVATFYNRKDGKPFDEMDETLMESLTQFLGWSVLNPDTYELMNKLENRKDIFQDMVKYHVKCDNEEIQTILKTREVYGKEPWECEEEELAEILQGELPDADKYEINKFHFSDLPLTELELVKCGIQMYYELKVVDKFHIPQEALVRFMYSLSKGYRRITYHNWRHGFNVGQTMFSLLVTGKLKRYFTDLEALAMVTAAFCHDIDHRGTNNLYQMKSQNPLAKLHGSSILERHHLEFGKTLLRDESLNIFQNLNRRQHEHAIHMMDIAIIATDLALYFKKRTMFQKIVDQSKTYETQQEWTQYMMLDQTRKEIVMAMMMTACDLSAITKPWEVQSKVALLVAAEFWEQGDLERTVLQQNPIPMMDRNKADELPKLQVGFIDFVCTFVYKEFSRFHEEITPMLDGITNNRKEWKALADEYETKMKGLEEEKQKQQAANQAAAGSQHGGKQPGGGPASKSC
T2 sequence (P23439 2-850 limits assumed): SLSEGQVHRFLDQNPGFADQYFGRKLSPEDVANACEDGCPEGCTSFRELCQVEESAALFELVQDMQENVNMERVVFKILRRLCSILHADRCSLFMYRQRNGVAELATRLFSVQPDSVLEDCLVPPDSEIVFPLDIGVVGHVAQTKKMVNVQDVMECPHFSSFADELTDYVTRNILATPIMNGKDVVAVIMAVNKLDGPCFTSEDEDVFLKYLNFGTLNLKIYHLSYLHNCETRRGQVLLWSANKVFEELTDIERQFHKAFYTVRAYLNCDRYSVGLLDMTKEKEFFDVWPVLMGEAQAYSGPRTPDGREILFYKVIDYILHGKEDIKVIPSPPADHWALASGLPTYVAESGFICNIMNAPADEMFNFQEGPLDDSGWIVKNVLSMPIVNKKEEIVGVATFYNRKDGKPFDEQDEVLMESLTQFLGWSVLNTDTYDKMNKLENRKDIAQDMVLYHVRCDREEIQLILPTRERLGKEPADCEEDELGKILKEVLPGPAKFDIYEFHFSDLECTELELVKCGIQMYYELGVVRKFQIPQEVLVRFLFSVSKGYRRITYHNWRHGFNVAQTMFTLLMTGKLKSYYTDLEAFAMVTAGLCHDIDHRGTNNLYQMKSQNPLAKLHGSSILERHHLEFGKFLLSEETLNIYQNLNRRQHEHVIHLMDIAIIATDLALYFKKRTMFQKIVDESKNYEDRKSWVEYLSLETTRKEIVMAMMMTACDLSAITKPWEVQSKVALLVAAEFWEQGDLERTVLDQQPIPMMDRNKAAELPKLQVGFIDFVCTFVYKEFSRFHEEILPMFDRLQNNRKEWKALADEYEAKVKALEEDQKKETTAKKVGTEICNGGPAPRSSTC
Source text: as §1

In the case of CCCCOc1ncc(S(=O)(=O)N2CCN(CC)CC2)cc1-c1nc2c(CC)n(CC(=O)N(C)C)nc2c(=O)[nH]1 [Example 60, 5-[2-n-Butoxy-5-(4-ethylpiperazin-1-ylsulphonyl)pyridin-3-yl]-2-[2-(dimethylamino)-2-oxoethyl]-3-ethyl-2,6-dihydro-7H-pyrazolo[4,3-d]pyrimidin-7-one], the IC50 (cGMP PDE5) is reported as 0.45 nM and the “Selectivity (PDE 5/6)” value (rod cGMP PDE6) is reported as 343.7.

CCOc1ncc(S(=O)(=O)N2CCN(CC)CC2)cc1-c1nc2c(CC)n(CC(C)C)nc2c(=O)[nH]1 [Example 5] gave an IC50 (cGMP PDE5) of 1 nM.

In the case of CCCCOc1ncc(S(=O)(=O)N2CCN(CC)CC2)cc1-c1nc2c(CC)n(CCN(C)C)nc2c(=O)[nH]1 [Example 17, 5-[2-n-Butoxy-5-(4-ethylpiperazin-1-ylsulphonyl)pryridin-3-yl]-2-dimethylaminoethyl-3-ethyl-2,6-dihydro-7H-pyrazolo[4,3-d]pyrimidin-7-one], the IC50 (cGMP PDE5) is reported as 0.9 nM and the “Selectivity (PDE 5/6)” value (rod cGMP PDE6) is reported as 254.1.

CCCc1c2nc(-c3cc(S(=O)(=O)N4CCN(CC)CC4)cnc3OCC(C)C)[nH]c(=O)c2nn1CCOC [Example 27, 5-[2-isoButoxy-5-(4-ethylpiperazin-1-ylsulphonyl)pyridin-3-yl]-2-(2-methoxyethyl)-3-n-propyl-2,6-dihydro-7H-prazolo[4,3-d]pyrimidin-7-one] was tested, and the IC50 (cGMP PDE5) was 0.85 nM and the “Selectivity (PDE 5/6)” value (rod cGMP PDE6) was 161.

CCCOc1ncc(S(=O)(=O)N2CCN(CC)CC2)cc1-c1nc2c(CC)n(CCN(C)C(C)=O)nc2c(=O)[nH]1 [Example 24] was tested, and the IC50 (cGMP PDE5) was 1.52 nM and the “Selectivity (PDE 5/6)” value (rod cGMP PDE6) was 134.9.

For CCc1c2nc(-c3cc(S(=O)(=O)N4CCN(C)CC4)cnc3OCCOC)[nH]c(=O)c2nn1CC1CCC1 [Example 53, 2-Cyclobutylmethyl-3-ethyl-5-[2-(2-methoxyethoxy)-5-(4-methylpiperazin-1-ylsulphonyl)pyridin-3-yl]-2,6-dihydro-7H-pyrazolo[4,3-d]pyrimidin-7-one], the IC50 (cGMP PDE5) was 1.09 nM.

CCOc1ncc(S(=O)(=O)N2CCN(CC)CC2)cc1-c1nc2c(CC)n(CCOC)nc2c(=O)[nH]1 [Example 8, 1-{6-ethoxy-5-[3-ethyl-6,7-dihydro-2-(2-methoxyethyl)-7-oxo-2H-pyrazolo[4,3-d]pyrimidin-5-yl]-3-pyridylsulfonyl}-4-ethylpiperazine] was tested, and the IC50 (cGMP PDE5) was 1.68 nM and the “Selectivity (PDE 5/6)” value (rod cGMP PDE6) was 223.8.

CCOc1ncc(S(=O)(=O)N2CCN(CC)CC2)cc1-c1nc2c(CC)n(C3CN(C(C)=O)C3)nc2c(=O)[nH]1 [Example 22, 2-(1-Acetylazetidin-3-yl)-5-[2-ethoxy-5-(4-ethylpiperazin-1-ylsulphonyl)pyridin-3-yl]-3-ethyl-2,6-dihydro-7H-pyrazolo[4,3-d]pyrimidin-7-one] was tested, and the IC50 (cGMP PDE5) was 6.4 nM and the “Selectivity (PDE 5/6)” value (rod cGMP PDE6) was 325.3.
